Assay results reported in patent US8846949B2, “Pyrrolopyrazoles as N-type calcium channel blockers” (Janssen Pharmaceutica NV, priority 2012, dated 2014).
Where two headings read alike, the source gives them in different places.

Experiments:
N-type calcium channel = target: T1, N-type calcium channel (Homo sapiens, UniProt Q00975); test: Automated electrophysiology assay (QPatch-HT whole-cell patch clamp); assay type: cell-based
T1 construct: expressed in transfected cells
Experimental: Cells were grown in T175 flasks to 50%-90% confluence. At the time of use, cells were enzymatically treated with Detachin (Genlantis, San Diego, Calif. USA), centrifuged, rinsed, and resuspended in 293 SFM II media (Life Technologies, Grand Island, N.Y. U.S.A.) supplemented with 25 mM HEPES (Sigma-Aldrich, St. Louis, Mo. U.S.A.) to a concentration of 2-3×10^6 cells/mL. Cells were added to the automated cell preparation station on the QPatch-HT (Sophion Biosciences, North Brunswick, N.J. U.S.A.), and following a 10- to 30-min recovery period with gentle stirring, the assay protocol was initiated. During the automated cell preparation, cells were collected, centrifuged and resuspended in an extracellular (EC) solution containing 132 mM NaCl, 1.8 mM CaCl2, 5.4 mM KCl, 0.8 mM MgCl2, 10 mM glucose, and 10 mM HEPES (pH=7.4), adjusted with sucrose to approximately 315 m0sm. The QPlate was primed with an intracellular solution containing 135 mM CsCl, 10 mM EGTA, 4 MgATP, 0.3 NaGTP, and 20 mM HEPES (pH=7.2), adjusted to approximately 290 m0sm with deionized water and the EC solution. Cells were added to the prepared QPlate wells by robotic pipettes of the QPatch-HT.
For cells determined to be in stable whole-cell patch clamp, the EC solution was replaced with a barium (Ba)/triethylammonium (TEA) solution containing 140 mM TEA-Cl, 10 mM BaCl2, 0.8 mM MgCl2, 10 mM glucose and 10 mM HEPES (pH=7.4). High (40 mM) BaCl2 concentrations were made with adjustments to TEA-C1 (90 mM) to maintain the osmolarity. From a resting potential of −80 mV, a train of depolarizing pulses (15 pulses at 5 Hz, +20 mV) was delivered to the cell once every 30 sec for eight trains (4 min total), and the resulting currents were measured during a control period (no compound). This protocol was repeated for each subsequent addition of control buffer with or without compound (three periods total, each with four trains). The current generated in the 1st and 15th pulses of the last train of each period in the presence of each drug concentration was normalized to the current generated during the control period at the respective pulses (representing low- and high-frequency stimulation, respectively). Data from both the second and third drug application periods were analyzed for each cell. A final addition of Ba/TEA solution containing 60-100 μM CdCl2 was made to block all N-type current and to “zero” the currents for each cell. All buffer/compound additions were made using a “spitting” feature of the QPatch-HT, which added three repetitions of 5 μL solution at the beginning of each recording period.
To examine closed-state inactivation, cells were subjected to a channel-activating 50-msec depolarizing step pulse from −80 to +10 mV, followed by a 5-sec nonactivating step to voltages ranging from −130 to −60 mV in 10 mV increments and then a 50-ms step from −80 to +10 mV to assess the remaining current. Currents from the activating voltage pulse were normalized to the peak value of the test pulse following the −130 mV step and fit to a Boltzman equation to obtain the V1/2. Roscovitine (Sigma-Aldrich) was prepared as a 100 mM stock in dimethyl sulfoxide and diluted to the indicated working concentrations. […]. Compounds of Formula (I) were diluted first into dimethyl sulfoxide and then into 10% pluronic F-127 in water (Life Technologies), sonicated for 1 min and diluted into EC buffer. Vehicle controls were run in parallel in all experiments.
Unless otherwise indicated, statistics for comparing among electrophysiological results utilized a one-way analysis of variance with Fisher's least squares determination test for pair-wise comparison.

[1] = target: T2, N-type calcium channel α1B (Cav2.2), β3 and α2δ subunits (Homo sapiens, UniProt Q00975); test: Functional assay, antagonism of N-type calcium channel (FDSS calcium mobilization response to KCl depolarization); assay type: cell-based; conditions: for IC50: HEK stable cell line, 50 mM KCl depolarization, six-point concentration-response; for inhibition at 0.33 µM: 0.33 μM compound, FDSS, 50 mM KCl
T2 construct: expressed in transfected cells
T2 sequence (Q00975 whole entry): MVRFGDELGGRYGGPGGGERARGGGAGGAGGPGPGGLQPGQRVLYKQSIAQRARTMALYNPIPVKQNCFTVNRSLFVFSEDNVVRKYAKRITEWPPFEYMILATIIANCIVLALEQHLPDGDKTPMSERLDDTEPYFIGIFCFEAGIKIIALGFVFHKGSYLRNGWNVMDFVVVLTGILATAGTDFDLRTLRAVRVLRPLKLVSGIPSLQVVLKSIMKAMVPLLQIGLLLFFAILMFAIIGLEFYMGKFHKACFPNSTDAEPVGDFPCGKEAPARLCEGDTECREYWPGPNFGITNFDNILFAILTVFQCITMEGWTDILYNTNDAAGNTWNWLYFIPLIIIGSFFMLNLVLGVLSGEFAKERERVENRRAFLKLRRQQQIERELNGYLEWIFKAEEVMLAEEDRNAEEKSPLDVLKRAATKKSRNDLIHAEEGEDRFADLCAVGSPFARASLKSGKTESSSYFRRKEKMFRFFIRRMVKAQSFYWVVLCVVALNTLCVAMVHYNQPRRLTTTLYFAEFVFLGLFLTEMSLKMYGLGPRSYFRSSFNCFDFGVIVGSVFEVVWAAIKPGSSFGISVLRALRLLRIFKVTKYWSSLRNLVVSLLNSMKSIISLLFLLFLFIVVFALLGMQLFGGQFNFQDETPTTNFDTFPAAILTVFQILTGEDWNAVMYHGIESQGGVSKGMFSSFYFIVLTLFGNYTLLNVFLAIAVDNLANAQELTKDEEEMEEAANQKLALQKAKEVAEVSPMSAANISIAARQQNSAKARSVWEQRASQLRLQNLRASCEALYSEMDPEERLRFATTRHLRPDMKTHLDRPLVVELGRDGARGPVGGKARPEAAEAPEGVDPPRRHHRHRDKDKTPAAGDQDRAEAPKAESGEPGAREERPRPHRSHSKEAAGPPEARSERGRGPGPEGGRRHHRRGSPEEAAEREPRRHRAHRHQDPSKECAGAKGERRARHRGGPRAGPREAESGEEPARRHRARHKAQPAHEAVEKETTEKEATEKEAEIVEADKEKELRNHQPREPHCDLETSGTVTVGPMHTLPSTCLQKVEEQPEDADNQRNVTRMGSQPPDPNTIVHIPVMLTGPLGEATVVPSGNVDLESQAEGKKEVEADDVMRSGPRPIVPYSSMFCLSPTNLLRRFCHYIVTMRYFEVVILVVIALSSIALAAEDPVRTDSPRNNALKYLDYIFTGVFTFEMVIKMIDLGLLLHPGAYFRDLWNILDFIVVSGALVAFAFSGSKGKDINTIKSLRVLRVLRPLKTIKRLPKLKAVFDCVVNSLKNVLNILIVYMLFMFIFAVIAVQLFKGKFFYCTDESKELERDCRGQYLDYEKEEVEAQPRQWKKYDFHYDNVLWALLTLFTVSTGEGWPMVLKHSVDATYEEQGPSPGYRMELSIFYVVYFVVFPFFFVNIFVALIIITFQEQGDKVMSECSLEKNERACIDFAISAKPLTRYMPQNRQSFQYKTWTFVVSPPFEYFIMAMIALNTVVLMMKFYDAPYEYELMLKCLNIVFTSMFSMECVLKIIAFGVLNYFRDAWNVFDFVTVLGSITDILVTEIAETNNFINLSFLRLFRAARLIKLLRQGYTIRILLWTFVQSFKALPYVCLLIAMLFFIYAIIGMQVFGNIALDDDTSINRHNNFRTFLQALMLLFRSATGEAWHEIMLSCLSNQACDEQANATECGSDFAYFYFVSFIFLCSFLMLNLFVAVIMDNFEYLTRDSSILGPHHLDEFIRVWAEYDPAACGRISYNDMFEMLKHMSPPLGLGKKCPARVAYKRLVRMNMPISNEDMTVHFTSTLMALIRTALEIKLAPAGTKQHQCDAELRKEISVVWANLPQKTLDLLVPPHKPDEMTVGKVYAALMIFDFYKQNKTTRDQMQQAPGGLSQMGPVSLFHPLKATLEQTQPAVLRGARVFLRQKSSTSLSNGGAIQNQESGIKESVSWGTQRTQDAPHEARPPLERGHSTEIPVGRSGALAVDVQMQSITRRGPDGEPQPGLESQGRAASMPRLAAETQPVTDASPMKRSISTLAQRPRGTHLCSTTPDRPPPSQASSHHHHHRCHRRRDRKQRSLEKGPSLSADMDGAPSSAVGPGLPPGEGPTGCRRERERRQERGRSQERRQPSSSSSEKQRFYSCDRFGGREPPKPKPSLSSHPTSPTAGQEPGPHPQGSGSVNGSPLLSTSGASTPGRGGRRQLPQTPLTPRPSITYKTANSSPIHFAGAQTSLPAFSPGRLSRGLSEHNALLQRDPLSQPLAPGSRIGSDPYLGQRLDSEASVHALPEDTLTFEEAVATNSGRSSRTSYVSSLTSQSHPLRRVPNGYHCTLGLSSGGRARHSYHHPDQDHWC
T2 sequence (P54284 whole entry partner): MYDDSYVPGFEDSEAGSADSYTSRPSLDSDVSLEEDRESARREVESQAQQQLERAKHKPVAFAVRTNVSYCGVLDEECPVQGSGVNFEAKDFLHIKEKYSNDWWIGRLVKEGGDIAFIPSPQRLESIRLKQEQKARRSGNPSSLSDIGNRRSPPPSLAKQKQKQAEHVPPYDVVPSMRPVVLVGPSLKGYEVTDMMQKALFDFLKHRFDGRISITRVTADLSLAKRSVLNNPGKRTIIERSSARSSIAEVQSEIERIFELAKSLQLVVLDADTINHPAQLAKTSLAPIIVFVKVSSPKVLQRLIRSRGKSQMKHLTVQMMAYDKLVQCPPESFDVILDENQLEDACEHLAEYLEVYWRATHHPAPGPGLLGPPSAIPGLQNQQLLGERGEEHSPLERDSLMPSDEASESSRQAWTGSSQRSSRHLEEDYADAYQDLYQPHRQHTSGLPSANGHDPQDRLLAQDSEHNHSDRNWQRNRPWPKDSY
T2 sequence (P54289 25-956 partner limits assumed): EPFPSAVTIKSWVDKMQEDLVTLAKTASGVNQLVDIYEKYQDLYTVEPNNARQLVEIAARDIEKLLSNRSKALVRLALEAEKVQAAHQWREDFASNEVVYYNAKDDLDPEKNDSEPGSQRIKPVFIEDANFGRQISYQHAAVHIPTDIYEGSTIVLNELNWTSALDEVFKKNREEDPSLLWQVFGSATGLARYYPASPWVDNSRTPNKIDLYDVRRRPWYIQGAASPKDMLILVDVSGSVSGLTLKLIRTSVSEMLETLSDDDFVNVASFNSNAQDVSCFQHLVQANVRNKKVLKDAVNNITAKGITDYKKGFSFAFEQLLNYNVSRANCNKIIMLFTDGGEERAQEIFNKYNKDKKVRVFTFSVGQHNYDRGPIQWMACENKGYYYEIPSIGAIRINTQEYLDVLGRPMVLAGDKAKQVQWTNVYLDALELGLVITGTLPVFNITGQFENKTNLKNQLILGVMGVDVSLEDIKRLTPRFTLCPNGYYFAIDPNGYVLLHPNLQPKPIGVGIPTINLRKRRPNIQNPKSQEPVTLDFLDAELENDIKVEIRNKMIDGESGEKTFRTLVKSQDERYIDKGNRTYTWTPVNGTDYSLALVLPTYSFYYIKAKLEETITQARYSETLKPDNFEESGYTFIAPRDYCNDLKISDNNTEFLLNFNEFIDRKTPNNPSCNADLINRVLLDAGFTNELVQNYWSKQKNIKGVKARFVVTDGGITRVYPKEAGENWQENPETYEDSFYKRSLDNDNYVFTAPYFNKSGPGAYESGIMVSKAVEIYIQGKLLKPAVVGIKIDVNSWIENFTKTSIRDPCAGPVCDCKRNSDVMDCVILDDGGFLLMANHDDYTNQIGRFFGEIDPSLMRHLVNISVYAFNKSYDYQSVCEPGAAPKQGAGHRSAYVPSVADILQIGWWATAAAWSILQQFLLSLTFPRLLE
T2 sequence (P54289 957-1103 partner limits assumed): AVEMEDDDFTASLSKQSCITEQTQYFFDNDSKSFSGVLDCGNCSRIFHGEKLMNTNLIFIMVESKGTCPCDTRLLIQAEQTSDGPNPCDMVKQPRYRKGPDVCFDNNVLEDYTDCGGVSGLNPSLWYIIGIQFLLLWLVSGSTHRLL
Method in brief: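 HEK cells stably co-expressing α1B (Cav2.2), β3 and α2δ subunits were loaded with calcium dye, preincubated with compound for 5 min, then depolarized with 50 mM KCl and read for 3 min by FDSS fluorescence. IC50 from six-point curves, normalized to KCl maximum and buffer minimum.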

[2] = high frequency (15th pulse of train, 5 Hz), read-out: QPatch at High Frequency % Inhibition
[3] = low frequency (1st pulse of train), read-out: QPatch at Low Frequency % Inhibition

T1 sequence (Q00975 whole entry): as the sequence (Q00975 whole entry) above
T1 sequence (P54284 whole entry partner): as the sequence (P54284 whole entry partner) above
T1 sequence (P54289 25-956 partner limits assumed): as the sequence (P54289 25-956 partner limits assumed) above
T1 sequence (P54289 957-1103 partner limits assumed): as the sequence (P54289 957-1103 partner limits assumed) above

`CC(C)S(=O)(=O)N1Cc2nn(-c3ccccc3OC(F)(F)F)c(-c3ccc(Cl)cc3)c2C1` [Cpd 35, 3-(4-Chlorophenyl)-5-[(1-methylethyl)sulfonyl]-2-[2-(trifluoromethoxy)phenyl]-2,4,5,6-tetrahydropyrrolo[3,4-c]pyrazole] gave an inhibition at 0.25 µM (N-type calcium channel; [2]) of 42%, an inhibition at 0.25 µM (N-type calcium channel; [3]) of 22% and an IC50 [1] of 27 nM.
In the case of `COc1ccccc1-n1nc2c(c1-c1ccc(Cl)cc1)CN(S(=O)(=O)CC(F)(F)F)C2` [Cpd 36, 3-(4-Chlorophenyl)-2-(2-methoxyphenyl)-5-[(2,2,2-trifluoroethyl)sulfonyl]-2,4,5,6-tetrahydropyrrolo[3,4-c]pyrazole], the inhibition at 0.25 µM (N-type calcium channel; [2]) is reported as 58%, the inhibition at 0.25 µM (N-type calcium channel; [3]) is reported as 42% and the IC50 [1] is reported as 15 nM.
Compound `COc1ccccc1-n1nc2c(c1-c1ccc(Cl)cc1)CN(S(=O)(=O)C1CCCCC1)C2` [Cpd 37, 3-(4-Chlorophenyl)-5-(cyclohexylsulfonyl)-2-(2-methoxyphenyl)-2,4,5,6-tetrahydropyrrolo[3,4-c]pyrazole] has an inhibition at 0.25 µM (N-type calcium channel; [2]) of 73%, an inhibition at 0.25 µM (N-type calcium channel; [3]) of 61% and an IC50 [1] of 16 nM.
Compound `COc1ccccc1-n1nc2c(c1-c1ccc(Cl)cc1)CN(S(=O)(=O)C1CCCC1)C2` [Cpd 40, 3-(4-Chlorophenyl)-5-(cyclopentylsulfonyl)-2-(2-methoxyphenyl)-2,4,5,6-tetrahydropyrrolo[3,4-c]pyrazole] has an inhibition at 0.25 µM (N-type calcium channel; [2]) of 69%, an inhibition at 0.25 µM (N-type calcium channel; [3]) of 57% and an IC50 [1] of 12 nM.
Work on `CCCC(C)S(=O)(=O)N1Cc2nn(-c3ccccc3OC)c(-c3ccc(Cl)cc3)c2C1` (stereo not shown) [Cpd 41, 3-(4-Chlorophenyl)-2-(2-methoxyphenyl)-5-[(1-methylbutyl)sulfonyl]-2,4,5,6-tetrahydropyrrolo[3,4-c]pyrazole] yielded an inhibition at 0.1 µM (N-type calcium channel; [2]) of 40%, an inhibition at 0.1 µM (N-type calcium channel; [3]) of 7% and an inhibition at 1 µM (N-type calcium channel; [2]) of 91%. It also gave an inhibition at 1 µM (N-type calcium channel; [3]) of 80%, an inhibition at 0.33 µM [1] of 90% and an IC50 [1] of 19 nM.
In the case of `COc1ccccc1-n1nc2c(c1-c1ccc(Cl)cc1)CN(S(=O)(=O)CCNS(C)(=O)=O)C2` [Cpd 44, N-(2-{[3-(4-Chlorophenyl)-2-(2-methoxyphenyl)-2,6-dihydropyrrolo[3,4-c]pyrazol-5(4H)-yl]sulfonyl}ethyl)methanesulfonamide], the inhibition at 0.1 µM (N-type calcium channel; [2]) is reported as -5%, the inhibition at 0.1 µM (N-type calcium channel; [3]) is reported as -2% and the IC50 [1] is reported as 9 nM.
`COc1ccccc1-n1nc2c(c1-c1ccc(Cl)cc1)CN(S(=O)(=O)CCNS(=O)(=O)C(C)C)C2` [Cpd 45, N-(2-{[3-(4-Chlorophenyl)-2-(2-methoxyphenyl)-2,6-dihydropyrrolo[3,4-c]pyrazol-5(4H)-yl]sulfonyl}ethyl)propane-2-sulfonamide] gave an inhibition at 0.1 µM (N-type calcium channel; [2]) of 26%, an inhibition at 0.1 µM (N-type calcium channel; [3]) of 26% and an IC50 [1] of 13 nM.
`COc1ccccc1-n1nc2c(c1-c1ccc(Cl)cc1)CN(S(=O)(=O)CCNS(=O)(=O)N(C)C)C2` [Cpd 46, N′-(2-{[3-(4-Chlorophenyl)-2-(2-methoxyphenyl)-2,6-dihydropyrrolo[3,4-c]pyrazol-5(4H)-yl]sulfonyl}ethyl)-N,N-dimethylsulfamide] gave an inhibition at 0.1 µM (N-type calcium channel; [2]) of -6%, an inhibition at 0.1 µM (N-type calcium channel; [3]) of -8% and an IC50 [1] of 5 nM.
With `COC(=O)CCS(=O)(=O)N1Cc2nn(-c3ccccc3OC(F)(F)F)c(-c3ccc(Cl)cc3)c2C1` [Cpd 47, Methyl 3-{[3-(4-chlorophenyl)-2-[2-(trifluoromethoxy)phenyl]-2,6-dihydropyrrolo[3,4-c]pyrazol-5(4H)-yl]sulfonyl}propanoate] the inhibition at 0.1 µM (N-type calcium channel; [2]) was 36%, the inhibition at 0.1 µM (N-type calcium channel; [3]) was 8% and the IC50 [1] was 31 nM.
`CCOc1ccccc1-n1nc2c(c1-c1ccc(Cl)cc1)CN(S(C)(=O)=O)C2` [Cpd 49, 3-(4-Chlorophenyl)-2-(2-ethoxyphenyl)-5-(methylsulfonyl)-2,4,5,6-tetrahydropyrrolo[3,4-c]pyrazole] gave an inhibition at 0.1 µM (N-type calcium channel; [2]) of 22%, an inhibition at 0.1 µM (N-type calcium channel; [3]) of 18% and an IC50 [1] of 2 nM.
`CCOc1ccccc1-n1nc2c(c1-c1ccc(Cl)cc1)CN(S(=O)(=O)C(C)C)C2` [Cpd 50, 3-(4-Chlorophenyl)-2-(2-ethoxyphenyl)-5-[(1-methylethyl)sulfonyl]-2,4,5,6-tetrahydropyrrolo[3,4-c]pyrazole] gave an inhibition at 0.1 µM (N-type calcium channel; [2]) of 50%, an inhibition at 0.1 µM (N-type calcium channel; [3]) of 42% and an IC50 [1] of 3 nM.
Work on `CCOc1ccccc1-n1nc2c(c1-c1ccc(Cl)cc1)CN(S(=O)(=O)C1CCCC1)C2` [Cpd 51, 3-(4-Chlorophenyl)-5-(cyclopentylsulfonyl)-2-(2-ethoxyphenyl)-2,4,5,6-tetrahydropyrrolo[3,4-c]pyrazole] yielded an inhibition at 0.1 µM (N-type calcium channel; [2]) of 47%, an inhibition at 0.1 µM (N-type calcium channel; [3]) of 37% and an IC50 [1] of 5 nM.
`CCOc1ccccc1-n1nc2c(c1-c1ccc(Cl)cc1)CN(S(=O)(=O)C1CCCCC1)C2` [Cpd 52, 3-(4-Chlorophenyl)-5-(cyclohexylsulfonyl)-2-(2-ethoxyphenyl)-2,4,5,6-tetrahydropyrrolo[3,4-c]pyrazole] was tested, and the inhibition at 0.1 µM (N-type calcium channel; [2]) was 50%, the inhibition at 0.1 µM (N-type calcium channel; [3]) was 40% and the IC50 [1] was 2 nM.
With `CCOc1ccccc1-n1nc2c(c1-c1ccc(Cl)cc1)CN(S(=O)(=O)N(C)C)C2` [Cpd 54, 3-(4-Chlorophenyl)-2-(2-ethoxyphenyl)-N,N-dimethyl-2,6-dihydropyrrolo[3,4-c]pyrazole-5(4H)-sulfonamide] the inhibition at 0.1 µM (N-type calcium channel; [2]) was 46%, the inhibition at 0.1 µM (N-type calcium channel; [3]) was 36% and the IC50 [1] was 2 nM.
`COc1ccccc1-n1nc2c(c1-c1ccc(Cl)cc1)CN(S(=O)(=O)N1CCCCCC1)C2` [Cpd 55, 5-(Azepan-1-ylsulfonyl)-3-(4-chlorophenyl)-2-(2-methoxyphenyl)-2,4,5,6-tetrahydropyrrolo[3,4-c]pyrazole] was tested, and the inhibition at 0.1 µM (N-type calcium channel; [2]) was 54%, the inhibition at 0.1 µM (N-type calcium channel; [3]) was 25% and the IC50 [1] was 7 nM.
With `CCN(CC)S(=O)(=O)N1Cc2nn(-c3ccccc3OC)c(-c3ccc(Cl)cc3)c2C1` [Cpd 56, 3-(4-Chlorophenyl)-N,N-diethyl-2-(2-methoxyphenyl)-2,6-dihydropyrrolo[3,4-c]pyrazole-5(4H)-sulfonamide] the inhibition at 0.1 µM (N-type calcium channel; [2]) was 36%, the inhibition at 0.1 µM (N-type calcium channel; [3]) was 28% and the IC50 [1] was 3 nM.
For `COc1ccccc1-n1nc2c(c1-c1ccc(Cl)cc1)CN(S(=O)(=O)N1CCC(C)CC1)C2` [Cpd 57, 3-(4-Chlorophenyl)-2-(2-methoxyphenyl)-5-[(4-methylpiperidin-1-yl)sulfonyl]-2,4,5,6-tetrahydropyrrolo[3,4-c]pyrazole], the inhibition at 1 µM (N-type calcium channel; [2]) was 82%, the inhibition at 1 µM (N-type calcium channel; [3]) was 69% and the inhibition at 0.33 µM [1] was 95%. For the same compound, the IC50 [1] was 8 nM.
Compound `COC(=O)C1CCN(S(=O)(=O)N2Cc3nn(-c4ccccc4OC)c(-c4ccc(Cl)cc4)c3C2)CC1` [Cpd 58, Methyl 1-{[3-(4-chlorophenyl)-2-(2-methoxyphenyl)-2,6-dihydropyrrolo[3,4-c]pyrazol-5(4H)-yl]sulfonyl}piperidine-4-carboxylate] has an inhibition at 0.1 µM (N-type calcium channel; [2]) of 52%, an inhibition at 0.1 µM (N-type calcium channel; [3]) of 53% and an IC50 [1] of 5 nM.
For `COc1ccccc1-n1nc2c(c1-c1ccc(Cl)cc1)CN(S(=O)(=O)N1CCOCC1)C2` [Cpd 59, 3-(4-Chlorophenyl)-2-(2-methoxyphenyl)-5-(morpholin-4-ylsulfonyl)-2,4,5,6-tetrahydropyrrolo[3,4-c]pyrazole], the inhibition at 0.1 µM (N-type calcium channel; [2]) was 51%, the inhibition at 0.1 µM (N-type calcium channel; [3]) was 28% and the IC50 [1] was 2 nM.
